Data taken from ChEMBL document CHEMBL1201862, “PubChem BioAssay data set” (2004).
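Briefly, cells in 96-well plates were exposed to five compound concentrations for 48 h, and endpoints were estimated by linear interpolation. GI50: concentration for 50% inhibition of growth.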 Active and inactive are the calls of the source. Cut-off read from the data, not from the text of the source: active = GI50 up to about 1.1 µM and inactive = higher.

Experiments:
Assay in all cases: DTP human tumour cell line panel, 48 h
Hs-578T = test system: Hs-578T
ACHN = test system: ACHN
K562 = test system: K562
KM12 = test system: KM12
Malme-3M = test system: Malme-3M
SK-OV-3 = test system: SK-OV-3
HL-60 = test system: HL-60
PC-3 = test system: PC-3
SF-268 = test system: SF-268
HOP-92 = test system: HOP-92
BT-549 = test system: BT-549
TK-10 = test system: TK-10
OVCAR-5 = test system: OVCAR-5
HCT-116 = test system: HCT-116
SW-620 = test system: SW-620
SR = test system: SR
COLO 205 = test system: COLO 205
OVCAR-4 = test system: OVCAR-4
IGROV-1 = test system: IGROV-1

SMILES | GI50 (Hs-578T) | GI50 (ACHN) | GI50 (K562) | GI50 (KM12) | GI50 (Malme-3M) | GI50 (SK-OV-3) | GI50 (HL-60) | GI50 (PC-3) | GI50 (SF-268) | GI50 (HOP-92) | GI50 (BT-549) | GI50 (TK-10) | GI50 (OVCAR-5) | GI50 (HCT-116) | GI50 (SW-620) | GI50 (SR) | GI50 (COLO 205) | GI50 (OVCAR-4) | GI50 (IGROV-1)
COC(=O)C1=C(C)NC2(O)C=CC(=O)C3C(=O)N(c4ccccc4)C(=O)C132 (centres undefined) | > 100 µM (inactive) | > 100 µM (inactive) | 48.2 µM (inactive) | > 100 µM (inactive) | 37.8 µM (inactive) | > 100 µM (inactive) | 63.8 µM (inactive) | > 100 µM (inactive) | > 100 µM (inactive) | 37.3 µM (inactive) | 64.1 µM (inactive) | > 100 µM (inactive) | 61.2 µM (inactive) | 73.6 µM (inactive) | 56.5 µM (inactive) | 76.4 µM (inactive) | 36.5 µM (inactive) | > 100 µM (inactive) | > 100 µM (inactive)
O=C(CCc1ccc(O)c(O)c1)NCCc1cc(O)c(O)c(O)c1 | 78.3 µM (inactive) | 33.8 µM (inactive) | 18.3 µM (inactive) | 25.4 µM (inactive) | > 100 µM (inactive) | > 100 µM (inactive) | 49.5 µM (inactive) | > 100 µM (inactive) | 41.1 µM (inactive) | > 100 µM (inactive) | 17 µM (inactive) | > 100 µM (inactive) | 61.2 µM (inactive) | 18.6 µM (inactive) | 18.8 µM (inactive) | 26.9 µM (inactive) | 37.8 µM (inactive) | 20.2 µM (inactive) | 54.1 µM (inactive)
CCCCC[C@H](O)[C@H](C)C=C1SCCCS1 | > 100 µM (inactive) | > 100 µM (inactive) | > 100 µM (inactive) | > 100 µM (inactive) | > 100 µM (inactive) | > 100 µM (inactive) | > 100 µM (inactive) | > 100 µM (inactive) | > 100 µM (inactive) | > 100 µM (inactive) | > 100 µM (inactive) | > 100 µM (inactive) | > 100 µM (inactive) | > 100 µM (inactive) | > 100 µM (inactive) | > 100 µM (inactive) | > 100 µM (inactive) | > 100 µM (inactive) | > 100 µM (inactive)
c1ccc2c(c1)cc1c3[nH]c4ccccc4c3ccn21 | > 10 µM (inactive) | > 10 µM (inactive) | > 10 µM (inactive) | > 10 µM (inactive) | 1.65 µM (inactive) | > 10 µM (inactive) | 0.687 µM (active) | > 10 µM (inactive) | > 10 µM (inactive) | > 10 µM (inactive) | > 10 µM (inactive) | > 10 µM (inactive) | > 10 µM (inactive) | 6.92 µM (inactive) | 6.78 µM (inactive) | > 10 µM (inactive) | 1.61 µM (inactive) | > 10 µM (inactive) | > 10 µM (inactive)
Nc1ncc(N)c(NCC2(CO)CC(CCc3ccccc3)C2)n1 (centres undefined) | 9.55 µM (inactive) | 12.1 µM (inactive) | 2.12 µM (inactive) | 10 µM (inactive) | 11 µM (inactive) | 12.2 µM (inactive) | 0.12 µM (active) | 5.89 µM (inactive) | 5.58 µM (inactive) | 3.39 µM (inactive) | 9.75 µM (inactive) | 12.5 µM (inactive) | 14.7 µM (inactive) | 6.55 µM (inactive) | 9.98 µM (inactive) | 1.08 µM (active) | 3.71 µM (inactive) | 4.02 µM (inactive) | 7.94 µM (inactive)
COc1ccc(Nc2nn3c(=O)c4c(C)c(C)sc4nc3s2)cc1 | 79.1 µM (inactive) | 41.4 µM (inactive) | > 100 µM (inactive) | 44.8 µM (inactive) | 32.2 µM (inactive) | 26.6 µM (inactive) | 97.5 µM (inactive) | 36.1 µM (inactive) | 5.98 µM (inactive) | 27.3 µM (inactive) | > 100 µM (inactive) | 26.8 µM (inactive) | 52.4 µM (inactive) | 26.7 µM (inactive) | 55.7 µM (inactive) | 9.84 µM (inactive) | > 100 µM (inactive) | 24.4 µM (inactive) | 42.2 µM (inactive)
CC(C)(O)CO/N=C1\C(=C2\C(=O)Nc3ccccc32)Nc2ccccc21 | 0.867 µM (active) | 0.426 µM (active) | 5.86 µM (inactive) | < 0.01 µM (active) | 4.3 µM (inactive) | 0.158 µM (active) | 0.74 µM (active) | 0.883 µM (active) | 2.33 µM (inactive) | 3.48 µM (inactive) | 1.82 µM (inactive) | 0.601 µM (active) | 2.61 µM (inactive) | 6.28 µM (inactive) | 0.811 µM (active) | 0.594 µM (active) | 0.615 µM (active) | 2.94 µM (inactive) | 0.0895 µM (active)
O=C(NNC(=S)Nc1ccc(Cl)cc1)C12CC3CC(CC(C3)C1)C2 | 17.1 µM (inactive) | 4.19 µM (inactive) | 4.24 µM (inactive) | 9.84 µM (inactive) | 7.98 µM (inactive) | 9.79 µM (inactive) | 1.68 µM (inactive) | 3.19 µM (inactive) | 6.05 µM (inactive) | 11.3 µM (inactive) | 11.6 µM (inactive) | 16.5 µM (inactive) | 20.3 µM (inactive) | 2.57 µM (inactive) | 3.76 µM (inactive) | 1.04 µM (active) | 3.32 µM (inactive) | 4.92 µM (inactive) | 3.34 µM (inactive)
CC[C@H]1C=CCC[C@@]2(C[C@@H]3CC[C@H]4[C@H](C(=O)OCCCCCCCCCCCCCCCC(=O)N(CCCN)C[C@@H](O)CCN)[C@]5(CCC[C@@H](C)O5)NC(=[N+]34)N2)O1 | 1.59 µM (inactive) | 0.513 µM (active) | 0.256 µM (active) | 0.509 µM (active) | 0.196 µM (active) | 1.65 µM (inactive) | 0.345 µM (active) | 0.7 µM (active) | 1.11 µM (active) | 0.318 µM (active) | 1.71 µM (inactive) | 1.46 µM (inactive) | 0.429 µM (active) | 0.344 µM (active) | 0.604 µM (active) | 0.323 µM (active) | 0.342 µM (active) | 0.863 µM (active) | 0.615 µM (active)
Cc1nc(O)c(O)c(CN2CCCCC2)n1 | > 100 µM (inactive) | > 100 µM (inactive) | > 100 µM (inactive) | > 100 µM (inactive) | > 100 µM (inactive) | > 100 µM (inactive) | 42.7 µM (inactive) | > 100 µM (inactive) | > 100 µM (inactive) | > 100 µM (inactive) | > 100 µM (inactive) | > 100 µM (inactive) | > 100 µM (inactive) | > 100 µM (inactive) | > 100 µM (inactive) | > 100 µM (inactive) | > 100 µM (inactive) | > 100 µM (inactive) | > 100 µM (inactive)
Nc1c(S(=O)(=O)O)cc(Nc2cccc(S(N)(=O)=O)c2)c2c1C(=O)c1ccccc1C2=O | 29 µM (inactive) | > 100 µM (inactive) | > 100 µM (inactive) | 71.6 µM (inactive) | 36.5 µM (inactive) | 27.5 µM (inactive) | > 100 µM (inactive) | > 100 µM (inactive) | > 100 µM (inactive) | > 100 µM (inactive) | > 100 µM (inactive) | > 100 µM (inactive) | > 100 µM (inactive) | > 100 µM (inactive) | 74.5 µM (inactive) | > 100 µM (inactive) | 38.1 µM (inactive) | > 100 µM (inactive) | > 100 µM (inactive)
C=C1CC(Cn2ccc(=O)[nH]c2=O)(c2ccc(Cl)cc2)OC1=O (centres undefined) | 10.5 µM (inactive) | 5.15 µM (inactive) | 0.631 µM (active) | 14 µM (inactive) | 2.46 µM (inactive) | 15 µM (inactive) | 8.47 µM (inactive) | 6.64 µM (inactive) | 19.8 µM (inactive) | 2.07 µM (inactive) | 4.1 µM (inactive) | 1.57 µM (inactive) | 15.7 µM (inactive) | 2.3 µM (inactive) | 1.83 µM (inactive) | 2.02 µM (inactive) | 1.73 µM (inactive) | 1.88 µM (inactive) | 2.86 µM (inactive)
NCCCc1c(-c2ccccc2)[nH]c(N)nc1=O | > 100 µM (inactive) | > 100 µM (inactive) | > 100 µM (inactive) | > 100 µM (inactive) | > 100 µM (inactive) | > 100 µM (inactive) | > 100 µM (inactive) | > 100 µM (inactive) | > 100 µM (inactive) | > 100 µM (inactive) | > 100 µM (inactive) | > 100 µM (inactive) | > 100 µM (inactive) | > 100 µM (inactive) | > 100 µM (inactive) | > 100 µM (inactive) | > 100 µM (inactive) | > 100 µM (inactive) | > 100 µM (inactive)
CN(C)CCNC(=O)c1ccc2nc3c(nc2c1)C(=O)c1ccccc1-3 | 52.2 µM (inactive) | 47.1 µM (inactive) | – | 81.8 µM (inactive) | 25.2 µM (inactive) | > 100 µM (inactive) | 19.1 µM (inactive) | 45 µM (inactive) | 33.5 µM (inactive) | 57.4 µM (inactive) | 21.7 µM (inactive) | > 100 µM (inactive) | > 100 µM (inactive) | 45.9 µM (inactive) | 34.2 µM (inactive) | 18.1 µM (inactive) | 34.6 µM (inactive) | 32.8 µM (inactive) | 38.9 µM (inactive)
CC[C@@]1(O)C(=O)OCc2c1cc1n(c2=O)Cc2c-1nc1ccccc1c2/C=N\NC(=O)C[n+]1ccccc1 | > 64.1 µM (inactive) | 0.0531 µM (active) | 1.02 µM (active) | 8.55 µM (inactive) | 3.95 µM (inactive) | 0.617 µM (active) | 0.225 µM (active) | 4.49 µM (inactive) | 0.115 µM (active) | 3.14 µM (inactive) | 7.57 µM (inactive) | 20.5 µM (inactive) | 6.18 µM (inactive) | 0.783 µM (active) | 1.33 µM (inactive) | 0.0411 µM (active) | 12.1 µM (inactive) | 8.57 µM (inactive) | 7.08 µM (inactive)
